Where a name gives a salt, the structure may show the parent alone.

As usually defined, the melting point is the temperature of the solid-liquid transition. Take `O=C(NC1CN2CCC1CC2)OCc1ccc2c(c1)OCO2` (centres unmarked) (as salt: hydrochloride): the melting point fell in the range of 186 to 187 °C.

The molecule `COc1cc(COC(=O)NC2CN3CCC2CC3)cc(OC)c1OC` (centres unmarked) (as salt: hydrochloride) came in with a melting point of 211 to 212 °C.

Source of the values: patent US6780861B2, “Azabicyclic carbamates and their use as α-7 nicotinic acetylcholine receptor agonists” (Novartis AG, priority 2000, dated 2004).
